Read-outs that look alike come from different tables or passages of the source.
Assays:
[1] = test system: A172 (human brain glioblastoma); test: MTT antiproliferative assay, A172; type: cell-based; conditions: for IC50: MTT, 72 h, A172 cells, read-out: IC50 ± SD A172; for SI HUVEC/A172: selectivity index = IC50 normal cell line / IC50 cancer cell line
Protocol: (§1) All cell lines were obtained from ATCC, and all chemicals were purchased from Sigma-Aldrich, St. Louis, MO, USA. […] All media were supplemented with antibiotic and antimycotic solutions, according to the manufacturers’ instructions. MTT cytotoxicity assessments were performed as described previously. […] The cells counted using an automated cell counter (Countess® II FL, Invitrogen by Thermo Fisher Scientific Inc., Waltham, MA, USA) were plated in 96-well plates (Nunc Edge 2F, Thermo Fisher Scientific Inc.) at a density of 0.1 × 10^4 per well. After an additional 72 h, cells underwent an MTT cytotoxicity assay (see below). The IC50 values were calculated using ED50plus v 1.0 freeware software (Instituto Nacional de Enfermedades Respiratorias, Mexico City, Mexico). Each cell line was tested in three independent replicates.
(§2) After the incubation time was complete, the medium was removed and crystals of formazan were solubilized in pure isopropanol. The absorbance readout was conducted immediately using a plate reader, Multiskan Spectrum, at 570 nm (Thermo Fisher Scientific Inc., Waltham, MA, USA). The background optical density was measured in the wells filled with the culture medium, without any cells.

B16F10 (murine melanoma) = test: MTT antiproliferative assay, B16F10; type: cell-based; conditions: for IC50: MTT, 72 h, B16F10 cells, read-out: IC50 ± SD B16F10; for SI HUVEC/ B16F10: selectivity index = IC50 normal cell line / IC50 cancer cell line
Protocol: as §1, §2

[2] = test system: MDA-MB-231 (human breast adenocarcinoma); test: MTT antiproliferative assay, MDA-MB-231; type: cell-based; conditions: for IC50: MTT, 72 h, MDA-MB-231 cells, read-out: IC50 ± SD MDA-MB-231; for SI HUVEC/ MDA-MB-231: selectivity index = IC50 normal cell line / IC50 cancer cell line
Protocol: as §1, §2

[3] = test system: HUVEC (human umbilical vein endothelial cells); test: MTT antiproliferative assay, HUVEC healthy control; type: cell-based; conditions: 72 h, HUVEC normal cells, read-out: IC50 ± SD HUVEC
Protocol: All cell lines were obtained from ATCC, and all chemicals were purchased from Sigma-Aldrich, St. Louis, MO, USA. Briefly, cells were cultivated in a controlled atmosphere using DMEM medium with fetal bovine serum (FBS) at a final concentration of 10% (A-172), an L15 medium with 15% FBS, cultivated without CO2 (MDA-MB-231), F12K with a heparin final concentration of 0.1 mg/mL, endothelial cell growth supplement with a final concentration of 0.03 mg/mL (HUVEC), and RPMI with 5% FBS. All media were supplemented with antibiotic and antimycotic solutions, according to the manufacturers’ instructions. MTT cytotoxicity assessments were performed as described previously. Briefly, cell lines A172, B16F10, MDA-MB-231, and HUVEC were seeded 24 h prior to the addition of the tested compounds. The cells counted using an automated cell counter (Countess® II FL, Invitrogen by Thermo Fisher Scientific Inc., Waltham, MA, USA) were plated in 96-well plates (Nunc Edge 2F, Thermo Fisher Scientific Inc.) at a density of 0.1 × 10^4 per well. After an additional 72 h, cells underwent an MTT cytotoxicity assay (see below). The IC50 values were calculated using ED50plus v 1.0 freeware software (Instituto Nacional de Enfermedades Respiratorias, Mexico City, Mexico). Each cell line was tested in three independent replicates.
as §2, with “Twenty microliters of an MTT solution (MTT: 3-(4,5-dimethylthiazol-2-yl)-2,5-diphenyl tetrazolium bromide, stock solution: 5 mg/mL) was added to each cell line for 2 h (A172, B16F10, MDA-MB-231, and HUVEC). After” for “After”

mushroom tyrosinase [4] = target: T1, mushroom tyrosinase (Agaricus bisporus, UniProt C7FF04); test: Mushroom tyrosinase inhibition assay (L-DOPA, dopachrome 475 nm); type: biochemical
T1 construct: purchased Sigma-Aldrich
T1 sequence (C7FF04 1-392 limits assumed): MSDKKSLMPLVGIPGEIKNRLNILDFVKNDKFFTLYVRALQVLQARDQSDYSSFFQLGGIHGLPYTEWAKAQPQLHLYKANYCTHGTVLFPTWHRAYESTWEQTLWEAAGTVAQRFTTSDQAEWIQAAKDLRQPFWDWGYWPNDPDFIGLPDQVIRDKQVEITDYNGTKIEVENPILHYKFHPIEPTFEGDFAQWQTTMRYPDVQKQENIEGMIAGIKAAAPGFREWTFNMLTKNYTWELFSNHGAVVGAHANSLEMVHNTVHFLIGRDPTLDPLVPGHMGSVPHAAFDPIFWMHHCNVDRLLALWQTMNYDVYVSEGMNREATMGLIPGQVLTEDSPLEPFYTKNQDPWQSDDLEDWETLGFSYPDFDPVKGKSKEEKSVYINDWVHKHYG
Protocol: The mushroom tyrosinase (Sigma-Aldrich) inhibition was performed following previously reported methods. […] The inhibitor solutions were prepared in DMSO with an initial concentration of 1 mM. Different aliquots were added to the solution containing the buffer, L-DOPA, and EDTA, with the enzyme being added last. […] Ascorbic acid was used as a reference inhibitor with an initial concentration of 1 mM. The IC50 values were calculated from the equation generated via exponential fit of the experimental data.

mushroom tyrosinase [5] = target: T1, mushroom tyrosinase; test: Kinetic analysis of the inhibition of tyrosinase (Lineweaver-Burk); type: biochemical; conditions: compound at 0.05 mM; for Mechanism of Inhibition: Lineweaver-Burk plots; for Vmax: L-DOPA 100-250 µM
Protocol: A series of experiments were performed to determine the inhibition kinetics of compounds by following the already reported method. The inhibitor concentrations for compounds were 50 and 100 µM. The substrate L-DOPA concentration was between 100 and 250 µM in all kinetic studies. Maximal initial velocity was determined from the initial linear portion of absorbance up to ten minutes after the addition of the enzyme. The inhibition type of the enzyme, Michaelis constant (KM), and maximal velocity (Vmax) were determined by Lineweaver–Burk plots of the inverse of velocities (1/V) versus the inverse of substrate concentration 1/[L-DOPA] mM^−1.

11β-HSD1 = target: T2, 11β-HSD1 (Homo sapiens, UniProt P28845); test: Inhibition of 11β-HSD1 assay (cortisone to cortisol, microsomes, cortisol ELISA); type: biochemical; conditions: for % of 11β-HSD1 Inhibition 10 μM: inhibitor 10 µM, 150 min, 37 °C
T2 construct: tissue XenoTech Lot No. 1410013; host or cells: pooled human liver microsomes
T2 sequence (P28845 whole entry): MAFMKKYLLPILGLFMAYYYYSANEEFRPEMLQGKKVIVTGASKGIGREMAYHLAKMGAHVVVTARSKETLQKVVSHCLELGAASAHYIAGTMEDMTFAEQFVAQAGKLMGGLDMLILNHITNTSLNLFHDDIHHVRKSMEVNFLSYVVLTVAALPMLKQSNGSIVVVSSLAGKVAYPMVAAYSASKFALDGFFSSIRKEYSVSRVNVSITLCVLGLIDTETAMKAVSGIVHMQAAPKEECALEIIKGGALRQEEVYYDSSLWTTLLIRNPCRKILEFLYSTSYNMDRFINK
Protocol: L160706125, was obtained from Cloud-Clone Corp. PBS, Lot No. H161008, was obtained from Pan Biotech. […] L191113457, was obtained from Cloud-Clone Corp. […] The microplates were incubated on an orbital shaker for 150 min at 37 °C. […] The quantity of cortisol formed from cortisone was determined using a cortisol ELISA kit, […].

11β-HSD2 = target: T3, 11β-HSD2 (Homo sapiens, UniProt P80365); test: Inhibition of 11β-HSD2 assay (cortisol to cortisone, microsomes, cortisol ELISA); type: biochemical; conditions: inhibitor 10 µM, 150 min, 37 °C
T3 construct: Human kidney microsomes, mixed gender, 0.5 mL, 10 mg/mL, Lot No. 1710160, were obtained from XenoTech; tissue XenoTech Lot No. 1710160; host or cells: human kidney microsomes
T3 sequence (P80365 1-405): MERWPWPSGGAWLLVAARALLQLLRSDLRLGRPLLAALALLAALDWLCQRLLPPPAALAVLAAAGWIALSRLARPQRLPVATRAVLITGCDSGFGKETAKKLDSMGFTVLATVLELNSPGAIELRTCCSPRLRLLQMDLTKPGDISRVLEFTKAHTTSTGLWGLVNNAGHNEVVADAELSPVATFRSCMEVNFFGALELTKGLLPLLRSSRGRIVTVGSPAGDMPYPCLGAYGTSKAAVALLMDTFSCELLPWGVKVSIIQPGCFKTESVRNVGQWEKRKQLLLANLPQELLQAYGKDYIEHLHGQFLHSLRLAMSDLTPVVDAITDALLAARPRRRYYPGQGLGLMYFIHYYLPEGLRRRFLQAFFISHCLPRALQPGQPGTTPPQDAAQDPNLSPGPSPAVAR
Protocol: The Enzyme-Linked Immunosorbent Assay (ELISA) Kit for 11-Beta-Hydroxysteroid Dehydrogenase Type 1, Lot No. L160706125, was obtained from Cloud-Clone Corp. PBS, Lot No. H161008, was obtained from Pan Biotech. […] The Enzyme-Linked Immunosorbent Assay (ELISA) Kit for 11-Beta-Hydroxysteroid Dehydrogenase Type 2, Lot No. L191113457, was obtained from Cloud-Clone Corp.
The oxidation reaction of cortisol to cortisone was carried out on 96-well microtiter plates in the presence of the enzyme 11β-HSD2 in a total volume of 100 µL. To this end, 60 µL of phosphate buffer (pH 7.4), 10 µL of a microsomes(0.12 µg/mL […]) solution in PBS (final quantity 2.5 µg), 20 µL of substrate mixture cortisol/NAD (final concentration 200 nM/2 mM), and 10 µL of the appropriate inhibitor solution (solvent DMSO/water 1/99, final concentration 10 µM) were placed in each well. The microplates were incubated on an orbital shaker for 150 min at 37 °C. […] The quantity of unreacted cortisol was determined using a cortisol ELISA kit DiaMetra.

[6] = L-DOPA 0.17 mM, pH 6.8, room temperature, read-out: IC50 ± SD mushroom tyrosinase
[7] = rounded values in SAR summary, unit mM, read-out: IC50 tyrosinase inhibition
[8] = 5 inhibitor concentrations, three independent determinations, read-out: IC50 ± SD 11β-HSD1
[9] = values in SAR summary, unit inferred, read-out: IC50 11β-HSD1 (unit inferred)

| Substance | IC50 [1] [µM] | SI HUVEC/A172 [1] | IC50 (B16F10 (murine melanoma)) [µM] | IC50 [2] [µM] | SI HUVEC/ MDA-MB-231 [2] | IC50 [3] [µM] | IC50 (mushroom tyrosinase [4]; [6]) [mM] | IC50 (mushroom tyrosinase [4]; [7]) [mM] | Mechanism of Inhibition (mushroom tyrosinase [5]) | Vmax (mushroom tyrosinase [5]) [mM/min] | IC50 (11β-HSD1; [8]) [µM] | % of 11β-HSD1 Inhibition 10 μM (11β-HSD1) [%] | % of 11β-HSD2 Inhibition 10 μM (11β-HSD2) [%] | SI HUVEC/ B16F10 (B16F10 (murine melanoma)) | IC50 (11β-HSD1; [9]) [µM] |
| --- | --- | --- | --- | --- | --- | --- | --- | --- | --- | --- | --- | --- | --- | --- | --- |
| 2-(2-(1,2-Dicarba-closo-Dodecaboranylmethylene)Hydrazinyl)-4-p-Tolylthiazole [4d] | 7.88 ± 0.98 | 1.06 | > 10 | 6.85 ± 0.86 | 1.21 | 8.32 ± 0.09 | 0.121 ± 0.0219 | 0.121 | Mixed | 0.3820 | 9.05 ± 0.25 | 55.78 | 27.83 |  |  |
| 2-(2-(1,2-Dicarba-closo-Dodecaboranylmethylene)Hydrazinyl)-4-(4-Fluorphenyl)Thiazole [4c] | 7.1 ± 1.9 | 1.06 | 5.57 ± 0.39 | 6.02 ± 0.08 | 1.25 | 7.51 ± 0.64 | 0.143 ± 0.00938 |  | Activator | 0.0810 | 8.1 ± 2 | 55.74 | 21.70 | 1.35 | 7.9 to 8.1 |
| 2-(2-(1,2-Dicarba-closo-Dodecaboranylmethylene)Hydrazinyl)-4-(4-Methoxyphenyl)Thiazole [4f] | > 10 |  | 5.81 ± 0.82 | 7.32 ± 1.26 | >1.37 | > 10 | 0.0494 ± 0.00801 |  | tyrosinase activator | 0.1472 | 9.35 ± 1.85 | 55.54 | 29.25 | >1.72 |  |
| 2-(2-(1,2-Dicarba-closo-Dodecaboranylmethylene)Hydrazinyl)-4-(3,4-Dichlorophenyl)Thiazole [4e] | 6.44 ± 0.6 | 1.22 | 5.58 ± 0.35 | 6.99 ± 2.27 | 1.12 | 7.86 ± 0.61 | 0.142 ± 0.013 | 0.142 | Activator | 0.1575 | 7.9 ± 1.4 | 62.17 | 19.34 | 1.41 | 7.9 to 8.1 |

Reference: PMC11477717, “Synthesis of Carborane–Thiazole Conjugates as Tyrosinase and 11β-Hydroxysteroid Dehydrogenase Inhibitors: Antiproliferative Activity and Molecular Docking Studies” (Molecules, 2024)
